Assay [1] deals with T1, MAO-B (Rattus norvegicus, UniProt P19643).
T1 construct: in partially purified mitochondria from rat brain; from tissue; host or cells: rat brain mitochondria (partially purified, differential centrifugation)
T1 sequence (P19643 1-520): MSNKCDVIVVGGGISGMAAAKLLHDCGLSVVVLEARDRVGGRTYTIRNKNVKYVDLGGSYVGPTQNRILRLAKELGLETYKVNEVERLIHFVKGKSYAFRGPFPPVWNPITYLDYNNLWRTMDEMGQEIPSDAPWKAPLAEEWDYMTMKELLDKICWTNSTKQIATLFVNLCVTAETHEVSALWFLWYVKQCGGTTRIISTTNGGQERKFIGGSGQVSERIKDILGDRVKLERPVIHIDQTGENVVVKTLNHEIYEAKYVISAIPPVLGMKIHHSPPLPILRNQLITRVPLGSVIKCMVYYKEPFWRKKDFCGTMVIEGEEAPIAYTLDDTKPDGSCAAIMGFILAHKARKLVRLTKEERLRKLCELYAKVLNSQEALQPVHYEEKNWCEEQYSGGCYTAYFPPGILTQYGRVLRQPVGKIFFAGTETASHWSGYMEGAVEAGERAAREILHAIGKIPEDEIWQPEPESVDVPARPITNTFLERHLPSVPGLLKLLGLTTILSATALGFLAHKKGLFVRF
The experiment in a line: Inhibition of MAO in vitro, rat brain mitochondria, 14C phenethylamine (PEA) as substrate. Format: biochemical. As to conditions: ratio of the inhibitory activity against MAO-B versus MAO-A. An excerpt:
The ability of a compound of structure 1 to inhibit MAO can be determined in vitro by the method of A. Christmas et al., Br. J. Pharmacol. 45, 490 (1972) in partially purified mitochondria from rat brain using ¹⁴C o-tyramine or ¹⁴C phenethylamine and ¹⁴C 5-HT as the substrate. The MAO inhibitory activity of a compound is expressed as the "IC₅₀" value, which is the molar concentration required to produce 50% inhibition of the enzyme. The IC₅₀ values for certain compounds of structure 1 were determined using the above-described method, and the results are set forth in Table I.
The selectivity of a compound of structure 1 with respect to inhibition of MAO-A and MAO-B can be determined by preparing mitochondria from rat brain by homogenation in phosphate buffer (0.1 M, pH 7.2) followed by differential centrifugation. The mitochondria are suspended in the same buffer, the test compound is added at the desired concentration, and the system is incubated. At different time intervals, aliquots are taken and MAO activity is measured using ¹⁴C 5-hydroxytryptamine (5HT; a preferred substrate for MAO-A) or 14C-phenethylamine (PEA; a preferred substrate for MAO-B) as the substrates. The selectivity is expressed as the ratio of the inhibitory activity against MAO-B versus the inhibitory activity against MAO-A. (Zreika, McDonald, Bey, Palfreyman, J. Neurochem., 43, 448-454 (1984)).

Assay [2] deals with MAO-B. Nature of the assay: Inhibition of MAO ex vivo, brain mitochondrial fraction after oral dosing, 14C phenethylamine as substrate. Format: in vivo. As to conditions: rats, orally (po). Here is the method:
(§1) The ability of a compound of formula 1 to inhibit MAO can be determined ex vivo by the following procedure:
(§2) The test compound is administered orally (po) to rats and the animals are killed at various times after treatment. The brain is removed and a mitochondrial fraction, described in Example 12 is prepared. MAO activity is determined using ¹⁴C p-tyramine, as the substrate. Selectivity can be determined by repeating the above-described test using either ¹⁴C 5-hydroxytryptamine (for MAO-A) or ¹⁴C phenethylamine (for MAO-B) as the substrate for determining the % inhibition.

The next assay has as its system MAO-A. The experiment in a line: Inhibition of MAO ex vivo, brain mitochondrial fraction after oral dosing, 14C 5-hydroxytryptamine as substrate. Format: in vivo. The conditions noted are these: rats, orally (po). The procedure:
as §1, §2

Each structure is given as a SMILES string.

In the case of `CCCCCCC/C(=C\F)CN` [(E)-2-Heptyl-3-fluoroallylamine], the “MAO B SELECTIVITY” value at MAO-B [1] was 13. On the same count and under the same terms, with `CC(C)/C(=C\F)CN` [(E)-2-Isopropyl-3-fluoroallylamine] the figure was 68; with `CCCC/C(=C\F)CN` [(E)-2-Butyl-3-fluoroallylamine], 55. As for `CC(C)C/C(=C\F)CN` [(E)-2-Isobutyl-3-fluoroallylamine], the “MAO B SELECTIVITY” value at MAO-B [1] amounted to 77. Moreover, in the assay on MAO-B [2], the “ED50 for MAO-B inhibition” value is reported as 0.05 mg/kg. Further, the “ED50 for MAO-A inhibition” value in the assay with MAO-A is given as 0.8 mg/kg. As for `CCCCCCCCCCC/C(=C\F)CN` [(E)-2-Undecyl-3-fluoroallylamine], the “MAO B SELECTIVITY” value on MAO-B [1] is 1.5. Still for that read-out and setting: with `CCCCCC/C(=C\F)CN` [(E)-2-Hexyl-3-fluoroallylamine] the figure was 24; with `CCC(C)/C(=C\F)CN` (stereo not drawn) [(E)-2-sec-Butyl-3-fluoroallylamine], 24.

Values taken from patent EP0224924B1, “Non-aromatic fluorallylamine MAO inhibitors” (MERRELL DOW PHARMACEUTICALS INC., priority 1985, dated 1987).
